From patent US11358949B2, “Carbamate and urea compounds as multikinase inhibitors” (ANGEX PHARMACEUTICAL, INC., priority 2017, dated 2022) come the findings set out here.

One experiment addresses T1, AXL (Homo sapiens, UniProt P30530).
T1 sequence (P30530 26-894): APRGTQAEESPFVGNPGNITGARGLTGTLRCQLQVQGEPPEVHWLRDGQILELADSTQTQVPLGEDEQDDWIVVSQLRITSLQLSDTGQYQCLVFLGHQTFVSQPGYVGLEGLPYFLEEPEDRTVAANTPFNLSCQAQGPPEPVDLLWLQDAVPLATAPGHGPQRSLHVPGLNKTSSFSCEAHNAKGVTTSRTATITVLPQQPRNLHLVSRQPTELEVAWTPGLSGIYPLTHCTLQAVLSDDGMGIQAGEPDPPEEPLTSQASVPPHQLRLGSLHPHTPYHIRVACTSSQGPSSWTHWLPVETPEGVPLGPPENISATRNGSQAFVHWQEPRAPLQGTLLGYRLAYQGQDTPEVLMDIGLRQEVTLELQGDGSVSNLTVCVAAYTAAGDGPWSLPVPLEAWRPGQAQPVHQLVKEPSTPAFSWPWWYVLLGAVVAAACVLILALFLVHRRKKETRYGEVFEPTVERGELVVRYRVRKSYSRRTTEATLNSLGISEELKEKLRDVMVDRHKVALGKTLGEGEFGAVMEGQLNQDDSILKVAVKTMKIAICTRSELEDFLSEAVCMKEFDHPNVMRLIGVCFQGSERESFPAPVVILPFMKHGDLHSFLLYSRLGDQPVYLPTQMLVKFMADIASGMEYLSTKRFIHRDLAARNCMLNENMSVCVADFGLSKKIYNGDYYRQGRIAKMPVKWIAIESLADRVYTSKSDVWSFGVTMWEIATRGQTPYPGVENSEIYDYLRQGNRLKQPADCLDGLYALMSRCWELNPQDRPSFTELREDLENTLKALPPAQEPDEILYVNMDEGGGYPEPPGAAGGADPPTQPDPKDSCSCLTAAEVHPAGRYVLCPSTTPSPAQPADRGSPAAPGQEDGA
Description: HotSpot Kinase Assay, AXL.

For another experiment, the target named is FMS (Homo sapiens, UniProt P07333). Description: HotSpot Kinase Assay, FMS.
A further experiment has as its target DDR1 (Homo sapiens, UniProt Q08345). Kind of experiment: HotSpot Kinase Assay, DDR1.
The target in another experiment is c-Kit (Homo sapiens, UniProt P10721). Description: HotSpot Kinase Assay, c-Kit.
The target of another experiment is T2, c-MER (Homo sapiens, UniProt Q12866).
T2 sequence (Q12866 21-999): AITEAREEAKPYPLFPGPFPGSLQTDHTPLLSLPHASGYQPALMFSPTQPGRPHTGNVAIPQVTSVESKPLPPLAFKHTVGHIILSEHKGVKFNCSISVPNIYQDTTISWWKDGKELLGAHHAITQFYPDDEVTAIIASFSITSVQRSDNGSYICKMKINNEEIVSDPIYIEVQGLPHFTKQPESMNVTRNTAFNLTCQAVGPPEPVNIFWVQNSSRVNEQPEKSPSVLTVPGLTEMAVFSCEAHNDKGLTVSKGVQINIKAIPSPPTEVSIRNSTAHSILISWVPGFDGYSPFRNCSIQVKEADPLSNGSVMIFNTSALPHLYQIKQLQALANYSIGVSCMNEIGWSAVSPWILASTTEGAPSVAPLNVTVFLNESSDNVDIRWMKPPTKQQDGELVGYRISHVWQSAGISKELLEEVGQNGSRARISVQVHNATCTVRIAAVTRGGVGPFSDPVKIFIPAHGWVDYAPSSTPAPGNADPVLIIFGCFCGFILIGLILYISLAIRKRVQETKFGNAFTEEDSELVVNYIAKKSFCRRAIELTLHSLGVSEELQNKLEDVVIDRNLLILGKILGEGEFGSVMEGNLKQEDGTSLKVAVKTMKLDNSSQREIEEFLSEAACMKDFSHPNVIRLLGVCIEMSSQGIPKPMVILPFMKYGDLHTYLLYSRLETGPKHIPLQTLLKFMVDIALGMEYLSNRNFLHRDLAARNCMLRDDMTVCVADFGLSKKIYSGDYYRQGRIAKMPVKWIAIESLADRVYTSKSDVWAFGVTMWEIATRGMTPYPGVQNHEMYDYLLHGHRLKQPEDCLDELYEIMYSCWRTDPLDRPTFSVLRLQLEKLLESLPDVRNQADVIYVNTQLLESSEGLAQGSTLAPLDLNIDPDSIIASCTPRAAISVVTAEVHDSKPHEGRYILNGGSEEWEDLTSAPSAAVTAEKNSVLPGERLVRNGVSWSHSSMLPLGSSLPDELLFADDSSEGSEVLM
Description: HotSpot Kinase Assay, c-MER.

A further experiment deals with c-MET (Homo sapiens, UniProt P08581). Kind of experiment: HotSpot Kinase Assay, c-MET.
Another experiment concerns the target EPHA2 (Homo sapiens, UniProt P29317). Description: HotSpot Kinase Assay, EPHA2.
Another experiment concerns the target LOK/STK10 (Homo sapiens, UniProt O94804). Kind of experiment: HotSpot Kinase Assay, LOK/STK10.
The target in a further experiment is T3, TYRO3/SKY (Homo sapiens, UniProt Q06418).
T3 sequence (Q06418 41-890): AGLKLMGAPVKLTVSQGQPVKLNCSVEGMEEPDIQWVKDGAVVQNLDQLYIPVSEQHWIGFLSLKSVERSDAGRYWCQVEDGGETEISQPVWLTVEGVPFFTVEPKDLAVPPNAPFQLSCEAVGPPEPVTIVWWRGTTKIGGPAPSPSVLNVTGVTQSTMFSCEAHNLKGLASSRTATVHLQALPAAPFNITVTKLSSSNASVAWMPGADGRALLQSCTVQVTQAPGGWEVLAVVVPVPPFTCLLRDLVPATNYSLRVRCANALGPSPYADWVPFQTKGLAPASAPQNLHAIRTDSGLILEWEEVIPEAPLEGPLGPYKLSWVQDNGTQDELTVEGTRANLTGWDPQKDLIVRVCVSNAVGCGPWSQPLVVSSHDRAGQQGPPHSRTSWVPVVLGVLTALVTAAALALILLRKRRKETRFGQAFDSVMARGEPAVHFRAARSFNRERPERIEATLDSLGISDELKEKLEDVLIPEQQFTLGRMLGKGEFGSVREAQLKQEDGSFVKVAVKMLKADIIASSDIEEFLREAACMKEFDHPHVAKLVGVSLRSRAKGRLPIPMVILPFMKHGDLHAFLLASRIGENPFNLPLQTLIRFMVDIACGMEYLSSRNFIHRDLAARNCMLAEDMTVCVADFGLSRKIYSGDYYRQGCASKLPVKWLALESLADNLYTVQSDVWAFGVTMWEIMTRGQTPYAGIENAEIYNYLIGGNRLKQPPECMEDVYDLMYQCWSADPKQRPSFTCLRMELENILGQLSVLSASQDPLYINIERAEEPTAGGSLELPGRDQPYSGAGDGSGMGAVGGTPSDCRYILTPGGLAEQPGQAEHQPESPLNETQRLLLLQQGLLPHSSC
Kind of experiment: HotSpot Kinase Assay, TYRO3/SKY.

Another experiment deals with KDR/VEGFR2 (Homo sapiens, UniProt P35968). Kind of experiment: HotSpot Kinase Assay, KDR/VEGFR2.

Where only a bound is given, the exact number is not on record here.

KDR/VEGFR2, sequence (P35968 20-1356): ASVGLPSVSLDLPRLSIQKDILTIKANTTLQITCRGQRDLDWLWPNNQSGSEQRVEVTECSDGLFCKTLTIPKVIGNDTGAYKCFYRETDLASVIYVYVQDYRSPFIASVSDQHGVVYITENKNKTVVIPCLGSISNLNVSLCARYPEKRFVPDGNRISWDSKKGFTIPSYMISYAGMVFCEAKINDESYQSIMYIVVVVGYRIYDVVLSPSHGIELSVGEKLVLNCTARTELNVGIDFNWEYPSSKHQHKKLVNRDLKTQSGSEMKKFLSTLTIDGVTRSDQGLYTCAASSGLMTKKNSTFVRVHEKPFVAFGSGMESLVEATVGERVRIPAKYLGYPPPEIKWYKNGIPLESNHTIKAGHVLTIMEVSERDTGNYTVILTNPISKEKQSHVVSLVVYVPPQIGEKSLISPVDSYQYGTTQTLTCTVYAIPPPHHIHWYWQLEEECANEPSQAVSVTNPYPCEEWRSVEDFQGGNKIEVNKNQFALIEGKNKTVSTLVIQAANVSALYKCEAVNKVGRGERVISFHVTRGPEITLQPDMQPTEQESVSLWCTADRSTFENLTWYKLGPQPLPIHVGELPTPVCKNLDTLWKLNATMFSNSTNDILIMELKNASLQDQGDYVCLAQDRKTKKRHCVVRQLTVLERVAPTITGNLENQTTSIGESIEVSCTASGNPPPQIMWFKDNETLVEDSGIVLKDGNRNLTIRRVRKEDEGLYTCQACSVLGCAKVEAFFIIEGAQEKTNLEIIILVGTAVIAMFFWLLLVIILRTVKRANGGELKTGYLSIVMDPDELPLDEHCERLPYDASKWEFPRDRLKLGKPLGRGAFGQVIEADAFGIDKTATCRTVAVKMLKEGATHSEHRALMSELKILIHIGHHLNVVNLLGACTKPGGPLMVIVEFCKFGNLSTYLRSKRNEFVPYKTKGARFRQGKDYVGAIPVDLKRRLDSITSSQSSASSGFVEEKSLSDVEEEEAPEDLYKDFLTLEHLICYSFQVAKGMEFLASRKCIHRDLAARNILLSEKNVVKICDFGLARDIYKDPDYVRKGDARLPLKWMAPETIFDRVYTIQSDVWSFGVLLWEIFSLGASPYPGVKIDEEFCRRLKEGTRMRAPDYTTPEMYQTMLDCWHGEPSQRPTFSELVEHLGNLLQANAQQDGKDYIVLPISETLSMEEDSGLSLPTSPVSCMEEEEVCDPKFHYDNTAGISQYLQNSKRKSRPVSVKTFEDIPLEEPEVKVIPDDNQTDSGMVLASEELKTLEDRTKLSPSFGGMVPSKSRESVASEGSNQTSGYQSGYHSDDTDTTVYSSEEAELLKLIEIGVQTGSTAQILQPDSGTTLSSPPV
c-Kit, sequence (P10721 26-976): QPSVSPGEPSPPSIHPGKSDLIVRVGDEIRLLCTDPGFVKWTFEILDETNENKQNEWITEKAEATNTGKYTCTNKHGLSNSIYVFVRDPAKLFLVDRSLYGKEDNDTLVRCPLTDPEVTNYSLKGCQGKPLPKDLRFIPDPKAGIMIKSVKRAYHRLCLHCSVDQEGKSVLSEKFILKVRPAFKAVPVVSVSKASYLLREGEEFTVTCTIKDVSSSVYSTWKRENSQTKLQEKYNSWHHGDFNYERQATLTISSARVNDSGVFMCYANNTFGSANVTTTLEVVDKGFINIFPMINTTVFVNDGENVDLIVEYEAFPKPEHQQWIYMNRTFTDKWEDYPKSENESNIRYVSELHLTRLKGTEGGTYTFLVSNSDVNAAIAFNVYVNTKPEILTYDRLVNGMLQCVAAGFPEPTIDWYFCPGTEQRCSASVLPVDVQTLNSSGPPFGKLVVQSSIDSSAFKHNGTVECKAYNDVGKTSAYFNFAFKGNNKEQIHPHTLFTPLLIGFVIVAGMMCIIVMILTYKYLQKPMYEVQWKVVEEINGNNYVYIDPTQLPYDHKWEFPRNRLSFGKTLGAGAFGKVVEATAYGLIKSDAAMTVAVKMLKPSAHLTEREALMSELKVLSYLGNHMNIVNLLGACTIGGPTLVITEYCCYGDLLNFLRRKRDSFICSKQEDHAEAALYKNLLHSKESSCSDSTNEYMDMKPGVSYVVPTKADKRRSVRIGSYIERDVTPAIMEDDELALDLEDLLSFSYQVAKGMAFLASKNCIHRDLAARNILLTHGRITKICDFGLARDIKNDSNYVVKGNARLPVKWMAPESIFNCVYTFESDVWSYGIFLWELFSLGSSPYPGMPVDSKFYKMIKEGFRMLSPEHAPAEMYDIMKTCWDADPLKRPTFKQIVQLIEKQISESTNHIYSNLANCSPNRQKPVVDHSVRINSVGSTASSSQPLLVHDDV
DDR1, sequence (Q08345 19-913): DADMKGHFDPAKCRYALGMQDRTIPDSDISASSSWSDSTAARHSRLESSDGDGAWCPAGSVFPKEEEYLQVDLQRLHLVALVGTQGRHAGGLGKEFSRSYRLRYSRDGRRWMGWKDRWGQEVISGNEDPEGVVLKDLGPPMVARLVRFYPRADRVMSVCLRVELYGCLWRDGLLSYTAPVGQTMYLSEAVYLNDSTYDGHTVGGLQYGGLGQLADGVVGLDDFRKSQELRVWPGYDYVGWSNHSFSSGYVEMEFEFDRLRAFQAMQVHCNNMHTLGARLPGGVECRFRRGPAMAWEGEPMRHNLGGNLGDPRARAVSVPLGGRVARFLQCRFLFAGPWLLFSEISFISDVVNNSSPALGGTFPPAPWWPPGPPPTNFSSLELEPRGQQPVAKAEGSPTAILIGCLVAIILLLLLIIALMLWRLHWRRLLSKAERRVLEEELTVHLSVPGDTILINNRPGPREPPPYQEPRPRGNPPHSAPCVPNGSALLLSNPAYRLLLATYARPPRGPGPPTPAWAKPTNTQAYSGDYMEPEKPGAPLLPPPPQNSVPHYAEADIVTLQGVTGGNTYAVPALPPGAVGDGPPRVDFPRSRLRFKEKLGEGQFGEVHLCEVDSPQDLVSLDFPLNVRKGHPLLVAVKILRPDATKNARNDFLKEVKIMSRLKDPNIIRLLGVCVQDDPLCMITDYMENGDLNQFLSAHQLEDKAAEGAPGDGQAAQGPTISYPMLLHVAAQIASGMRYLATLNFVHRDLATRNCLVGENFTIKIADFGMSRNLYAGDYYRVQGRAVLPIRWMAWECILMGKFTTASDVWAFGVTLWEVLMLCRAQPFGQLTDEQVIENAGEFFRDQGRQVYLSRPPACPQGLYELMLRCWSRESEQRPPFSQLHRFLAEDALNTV
FMS, sequence (P07333 20-972): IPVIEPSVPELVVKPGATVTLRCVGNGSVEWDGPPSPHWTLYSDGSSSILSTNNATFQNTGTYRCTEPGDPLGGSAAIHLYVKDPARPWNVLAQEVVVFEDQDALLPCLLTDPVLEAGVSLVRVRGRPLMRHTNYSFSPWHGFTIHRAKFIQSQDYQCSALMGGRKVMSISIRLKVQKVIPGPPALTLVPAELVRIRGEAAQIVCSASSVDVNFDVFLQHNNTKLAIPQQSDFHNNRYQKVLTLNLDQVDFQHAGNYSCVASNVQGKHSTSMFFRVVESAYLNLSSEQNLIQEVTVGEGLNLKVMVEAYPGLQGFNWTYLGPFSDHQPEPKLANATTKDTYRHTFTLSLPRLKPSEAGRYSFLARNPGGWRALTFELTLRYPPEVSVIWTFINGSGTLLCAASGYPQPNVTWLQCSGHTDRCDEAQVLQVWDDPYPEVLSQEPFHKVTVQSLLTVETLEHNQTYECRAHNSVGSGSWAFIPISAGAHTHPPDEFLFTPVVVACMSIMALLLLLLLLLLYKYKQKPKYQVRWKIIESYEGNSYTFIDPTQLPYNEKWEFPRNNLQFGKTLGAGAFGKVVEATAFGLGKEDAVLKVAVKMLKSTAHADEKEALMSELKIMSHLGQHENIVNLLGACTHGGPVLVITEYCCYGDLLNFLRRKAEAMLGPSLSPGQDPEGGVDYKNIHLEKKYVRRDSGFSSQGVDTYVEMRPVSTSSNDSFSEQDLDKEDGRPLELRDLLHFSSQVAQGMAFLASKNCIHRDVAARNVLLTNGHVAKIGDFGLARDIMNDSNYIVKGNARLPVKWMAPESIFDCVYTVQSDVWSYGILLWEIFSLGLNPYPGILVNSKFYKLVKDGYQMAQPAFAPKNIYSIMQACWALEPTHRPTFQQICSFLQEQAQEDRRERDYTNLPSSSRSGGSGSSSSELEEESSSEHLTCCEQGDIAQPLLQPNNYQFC
EPHA2, sequence (P29317 24-976): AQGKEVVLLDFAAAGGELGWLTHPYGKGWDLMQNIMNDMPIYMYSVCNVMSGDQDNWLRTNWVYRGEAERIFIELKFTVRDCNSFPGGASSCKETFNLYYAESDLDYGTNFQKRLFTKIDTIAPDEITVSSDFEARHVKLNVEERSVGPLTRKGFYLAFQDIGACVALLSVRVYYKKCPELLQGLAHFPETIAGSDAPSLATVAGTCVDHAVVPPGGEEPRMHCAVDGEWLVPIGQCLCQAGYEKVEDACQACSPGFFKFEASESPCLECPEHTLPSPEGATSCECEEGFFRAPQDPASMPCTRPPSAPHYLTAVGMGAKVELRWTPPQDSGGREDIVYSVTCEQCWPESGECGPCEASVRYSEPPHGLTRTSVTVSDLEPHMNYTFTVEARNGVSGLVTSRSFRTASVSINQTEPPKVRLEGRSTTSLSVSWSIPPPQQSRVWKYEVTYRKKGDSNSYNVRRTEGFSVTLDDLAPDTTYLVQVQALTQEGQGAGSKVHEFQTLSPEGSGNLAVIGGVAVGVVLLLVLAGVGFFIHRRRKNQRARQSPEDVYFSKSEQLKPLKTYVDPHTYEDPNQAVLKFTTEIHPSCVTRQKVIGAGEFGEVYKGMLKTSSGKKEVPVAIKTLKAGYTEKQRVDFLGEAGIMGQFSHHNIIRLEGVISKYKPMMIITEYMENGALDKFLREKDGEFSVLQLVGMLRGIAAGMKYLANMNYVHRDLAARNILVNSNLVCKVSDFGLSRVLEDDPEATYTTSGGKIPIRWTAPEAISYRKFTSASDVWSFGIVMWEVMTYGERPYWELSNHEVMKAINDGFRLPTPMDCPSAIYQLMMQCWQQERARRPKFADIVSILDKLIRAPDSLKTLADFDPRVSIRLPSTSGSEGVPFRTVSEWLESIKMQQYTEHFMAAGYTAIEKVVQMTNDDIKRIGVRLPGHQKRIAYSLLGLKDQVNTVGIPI
Description for DDR1: (§1) Specifically, for each reaction, kinase and substrate were mixed in a pH 7.5 buffer containing 20 mM HEPES, 10 mM MgCl2, 1 mM EGTA [Ethylene glycol-bis(2-aminoethylether)-N,N,N′,N′-tetraacetic acid], 0.02% Brij35, 0.02 mg/mL BSA (Bovine Serum Albumin), 0.1 mM Na3VO4, 2 mM DTT, and 1% DMSO. Compounds were then added to each reaction mixture. After a 20-min incubation, ATP (Sigma-Aldrich) and [γ-^33P] ATP (PerkinElmer) were added at a final total concentration of 100 μM. Reactions were carried out at room temperature for 2 hours and spotted onto P81 ion exchange cellulose chromatography paper (Whatman). […] The percent remaining kinase activity relative to a vehicle-containing (DMSO) kinase reaction was calculated for each kinase/inhibitor pair. […] IC50 values were calculated using Prism 5 (GraphPad).
Description for EPHA2: as §1
Description for LOK/STK10: as §1
Description for TYRO3/SKY: as §1
Description for c-Kit: as §1
Description for c-MER: as §1

What is called IC50 is the concentration that inhibits the measured activity by half. On to `COc1cc2nccc(Oc3ccc(NC(=O)C4(C(=O)Nc5ccc(F)cc5)CC4)cc3)c2cc1OC(=O)N1[C@H](C)CNC[C@@H]1C` [Compound 7-4], for which the half-maximal inhibitory concentration (IC50) against AXL, against FMS, on DDR1, against c-Kit, against c-MER and on c-MET was < 100 nM each time. Also, the IC50 was 100 to 1000 nM against EPHA2, 100 to 1000 nM against LOK/STK10, < 100 nM at TYRO3/SKY and < 100 nM against KDR/VEGFR2.
For the molecule `COc1cc2c(Oc3ccc(NC(=O)C4(C(=O)Nc5ccc(F)cc5)CC4)cc3F)ccnc2cc1OC(=O)N1CCN(C)C[C@H]1C` [Compound 3-5, 4-(2-fluoro-4-(1-((4-fluorophenyl)carbamoyl)cyclopropane-1-carboxamido)phenoxy)-6-methoxyquinolin-7-yl (R)-2,4-dimethylpiperazine-1-carboxylate], the concentration for half-maximal inhibition (IC50) against AXL is < 100 nM; on FMS it was 100 to 1000 nM; at DDR1, < 100 nM; on c-Kit it was < 100 nM; against c-MER it was < 100 nM; at c-MET, < 100 nM. In addition, the IC50 on EPHA2 is < 100 nM; against LOK/STK10, 100 to 1000 nM; at TYRO3/SKY, 100 to 1000 nM; on KDR/VEGFR2 it was < 100 nM.
In the case of `COc1cc2c(Oc3ccc(NC(=O)C4(C(=O)Nc5ccc(F)cc5)CC4)cc3)ccnc2cc1OC(=O)N1CCNC[C@H]1C` [Compound 6-4], the IC50 against AXL, against FMS, at DDR1, at c-Kit, on c-MER and against c-MET was < 100 nM throughout. In addition, the IC50 against EPHA2, against LOK/STK10, against TYRO3/SKY and against KDR/VEGFR2 was 100 to 1000 nM each time.
For `COc1cc2c(Oc3ccc(NC(=O)C4(C(=O)Nc5ccc(F)cc5)CC4)cc3)ccnc2cc1OC(=O)N1CCCC1` [Compound 1-14], the IC50 against AXL was 100 to 1000 nM; against FMS, > 1000 nM; at DDR1 it was < 100 nM; against c-Kit, 100 to 1000 nM; on c-MER, 100 to 1000 nM; at c-MET, < 100 nM. The IC50 on EPHA2, on LOK/STK10, against TYRO3/SKY and against KDR/VEGFR2 was > 1000 nM each time.
As for `COc1cc2nccc(Oc3ccc(NC(=O)C4(C(=O)Nc5ccc(F)cc5)CC4)cc3)c2cc1OC(=O)N1CCNCC1(C)C` [Compound 7-6], the IC50 against AXL was < 100 nM; against FMS, 100 to 1000 nM; against DDR1, < 100 nM; on c-Kit it was < 100 nM; against c-MER, < 100 nM; on c-MET it was < 100 nM. The IC50 at EPHA2 is 100 to 1000 nM; on LOK/STK10, 100 to 1000 nM; on TYRO3/SKY, < 100 nM; against KDR/VEGFR2, < 100 nM.
With `COc1cc2nccc(Oc3ccc(NC(=O)C4(C(=O)Nc5ccc(F)cc5)CC4)cc3)c2cc1OC(=O)N1CCN(C)CC1(C)C` [Compound 7-7], the IC50 at AXL is < 100 nM; against FMS, 100 to 1000 nM; against DDR1, < 100 nM; on c-Kit, < 100 nM; against c-MER it was < 100 nM; at c-MET, < 100 nM. In addition, the IC50 on EPHA2 is 100 to 1000 nM; at LOK/STK10, > 1000 nM; at TYRO3/SKY, 100 to 1000 nM; at KDR/VEGFR2 it was 100 to 1000 nM.
`COc1cc2c(Oc3ccc(NC(=O)C4(C(=O)Nc5ccc(F)cc5)CC4)cc3)ccnc2cc1OC(=O)N1C[C@H]2C[C@@H]1CN2C` [Compound 2-6]: the IC50 at AXL, at FMS, on DDR1, against c-Kit, on c-MER and against c-MET was < 100 nM throughout. Also, the IC50 on EPHA2 is < 100 nM; at LOK/STK10, 100 to 1000 nM; against TYRO3/SKY, 100 to 1000 nM; against KDR/VEGFR2, 100 to 1000 nM.
As for `COc1cc2c(Oc3ccc(NC(=O)C4(C(=O)Nc5ccc(F)cc5)CC4)cc3)ccnc2cc1OC(=O)N1CCN(C)CC1(C)C` [Compound 6-6], the IC50 is < 100 nM on AXL; 100 to 1000 nM on FMS; < 100 nM against DDR1; < 100 nM at c-Kit; < 100 nM at c-MER; 100 to 1000 nM at c-MET. The IC50 against EPHA2, against LOK/STK10, on TYRO3/SKY and against KDR/VEGFR2 was 100 to 1000 nM in each case.
In the case of `COc1cc2c(Oc3ccc(NC(=O)C4(C(=O)Nc5ccc(F)cc5)CC4)cc3)ccnc2cc1OC(=O)N1C[C@@H]2C[C@H]1CN2C` [Compound 2-7], the IC50 at AXL, on FMS, against DDR1, at c-Kit, on c-MER and on c-MET was < 100 nM in each case. The IC50 was < 100 nM against EPHA2, 100 to 1000 nM on LOK/STK10, 100 to 1000 nM at TYRO3/SKY and 100 to 1000 nM against KDR/VEGFR2.
